The values that follow come from US6564152B2, “Pharmacophore models for, methods of screening for, and identification of the cytochrome P-450 inhibitory potency of neurokinin-1 receptor antagonists” (Pfizer Inc, priority 2000, dated 2003).

The experiment deals with recombinant CYP2D6 (Homo sapiens, UniProt P10635). Description: Bufuralol 1'-hydroxylase assay (CYP2D6) IC50 determination.
[1] abbreviates: CYP2D6 IC50, recombinant CYP2D6 0.1 mg/ml, bufuralol 3.4 μM, 37° C., pH 7.4, Table I.
Setting [2] is: IC50 Observed, test set of 8 compounds, in vitro values as measured in Example 1, Table II.

Where two headings read alike, the source gives them in different places.

Chain of recombinant CYP2D6 (P10635 whole entry): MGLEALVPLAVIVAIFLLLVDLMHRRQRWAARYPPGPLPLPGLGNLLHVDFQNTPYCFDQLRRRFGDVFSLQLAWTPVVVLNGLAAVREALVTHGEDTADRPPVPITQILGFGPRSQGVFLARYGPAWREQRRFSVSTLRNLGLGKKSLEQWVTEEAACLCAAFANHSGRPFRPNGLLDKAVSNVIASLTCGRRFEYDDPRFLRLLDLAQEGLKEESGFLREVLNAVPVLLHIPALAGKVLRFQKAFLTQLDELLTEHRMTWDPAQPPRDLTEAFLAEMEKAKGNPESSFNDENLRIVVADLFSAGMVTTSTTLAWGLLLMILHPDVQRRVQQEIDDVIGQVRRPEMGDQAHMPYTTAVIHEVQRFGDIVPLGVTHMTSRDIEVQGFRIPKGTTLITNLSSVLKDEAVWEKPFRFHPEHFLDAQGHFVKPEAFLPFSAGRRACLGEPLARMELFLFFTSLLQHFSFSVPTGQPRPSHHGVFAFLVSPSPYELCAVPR
Experimental: Using a bufuralol-hydroxylation as a marker for CYP2D6 catalytic activity, the inhibitory effect of various NK-1 antagonists were assessed in vitro. The inhibitor compounds of Table I were assayed for CYP2D6 activity by the following procedure.
Two separate plates were prepared for the substrate and for dilutions of inhibitor. The contents of the two plates were combined in a 1:1 ratio to make a master plate of substrate and inhibitor solutions (S/I plate). The remaining assay ingredients, a combination of CYP2D6 (0.1 mg/ml, 0.12 pmol/ml, Panvera, Madison Wis.), NADPH (1.2 mM) and buffer (100 mM sodium phosphate, pH 7.4), are prepared on ice and transferred to a polyvinyl reaction plate (RXN plate). […] The RXN plate is pre-warmed to 37° C. using a MJ Research Model PTC-100 automated thermal controller, and the reaction is initiated by addition of an aliquot from the S/I plate. The reaction is allowed to proceed at 37° C. before being terminated using 70% perchloric acid (50 μl). HPLC analysis is preceded by filtration of (150μl) using a Millipore multiscreen-MAHA mixed cellulose esters, triton free, non-sterile plate (Millipore Co., Bedford, Mass.).
The reactions were then terminated as described above and Multiscreen plates were then used to filter the samples by slowly drawing them through the filter plate by a weak vacuum and collecting them in a polypropylene 96-well plate. The plate was mixed by drawing up and expelling well contents twice with the Soken pipettor. A 20 μl volume of each sample was injected for HPLC analysis every 2.5 minutes. When required, concentrations of the inhibitor were adjusted in a repeat experiment to cover concentration ranges above and below the reported IC50 value.
The mobile phase consisted of acetonitrile and water 20/80 v/v containing triethylamine (1 ml/liter) and phosphoric acid (600 l/liter) at a flow rate of 0.5 ml/min (analytical side) and 1.8 ml/min (wash side) using a column switching format. HPLC analysis was performed with two alternating HPLC columns (column A and column B) attached to a Valco E36 valve. Between 0 and 5.2 minutes of the run time, column A analyses metabolite peak of sample #1. […] During the wash cycle, the flow to column A is increased to 1.8 ml/min. […] A Phenomex primesphere C1 8-MC, 5 μm, 30×2 mm column (Phenomenex, Torrance, Calif.) was used. The retention time of the 1′-hydroxybufuralol (carbinol) metabolite was 1.0 minute. The peak area of the carbinol metabolite was determined in the absence of inhibitor and compared to that measured in the presence of inhibitor. The percent of control values versus inhibitor concentration were fitted to a Hill equation using non-linear curve fitting methods, namely, Deltagraph (DeltaPoint, Inc., Monterey, Calif.).

Broadly, the IC50 is the concentration at which inhibition is half-maximal. For the molecule `CC(C)Oc1ccc(OC(F)(F)F)cc1CN[C@H]1CCCN[C@H]1c1ccccc1` [XIX], the IC50 came out at 47 nM. For the molecule `COc1ccccc1CN[C@H]1CCCN[C@H]1c1ccccc1` [IV], the IC50 is 200 nM under setting [1] and 21 nM under setting [2].

On to `FC(F)(F)c1cc(CO[C@H]2OCCN(Cc3nnc[nH]3)[C@H]2c2ccccc2)cc(C(F)(F)F)c1` [XXIII], for which, under setting [1], the concentration for half-maximal inhibition (IC50) turned out to be 8800 nM. With `COc1ccccc1CN[C@@H]1CCCC[C@@H]1C(c1ccccc1)c1ccccc1` [II], the IC50 by setting is: under setting [1], 16 nM; under setting [2], 16 nM.

Take `CC(C)Oc1ccccc1CN[C@H]1CCCN[C@H]1c1ccccc1` [XIV]: the IC50 stood at 38 nM under setting [1] and 38 nM under setting [2]. Regarding `COc1ccc(-n2nnnc2C(F)(F)F)cc1CN[C@H]1CCCN[C@H]1c1ccccc1` [XXVI], the IC50 under setting [1] amounted to 530 nM. As to `FC(F)(F)Oc1ccccc1CN[C@H]1CCCN[C@H]1c1ccccc1` [XVII], the IC50 under setting [1] is 40 nM. With `C[C@@H](O[C@H]1OCCN(Cc2n[nH]c(=O)[nH]2)[C@H]1c1ccc(F)cc1)c1cc(C(F)(F)F)cc(C(F)(F)F)c1` [Compound XXI], the IC50 under setting [1] came out at 18400 nM.

Take `COc1ccccc1CN[C@@H]1[C@H]2CCC[C@H]2N[C@@H]1c1ccccc1` [IX]: the IC50 under setting [1] stood at 130 nM. Turning to `COc1ccccc1[C@H]1CC[C@]2(CCCN[C@@H]2c2ccccc2)NC1` [Compound XX], the IC50 under setting [1] was found to be 21 nM. On to `COc1ccccc1CN[C@@H]1C2CCN(CC2)[C@@H]1C(c1ccccc1)c1ccccc1` [III], for which the IC50 under setting [1] was 170 nM. For `COc1ccccc1CN[C@@H]1C2C3CCCC2CN(C3)[C@@H]1C(c1ccccc1)c1ccccc1` [XII], the IC50 under setting [1] worked out at 6.7 nM. Consider `COc1ccc(OC)c(CN[C@H]2CCCN[C@H]2c2ccccc2)c1` [Compound X], for which the IC50 under setting [1] amounted to 370 nM. Regarding `Clc1ccccc1CN[C@@H]1C2CCN(CC2)[C@@H]1C(c1ccccc1)c1ccccc1` [I], the IC50 was 59 nM.

With `O=c1[nH]nc(CN2CCO[C@H](OCc3cc(C(F)(F)F)cc(C(F)(F)F)c3)[C@@H]2c2ccccc2)[nH]1` [Compound XXIV], the IC50 is, setting by setting: under setting [1], 7100 nM; under setting [2], 7100 nM. Turning to `Clc1ccccc1CN[C@@H]1C2CC3CCC(C2)N3[C@@H]1C(c1ccccc1)c1ccccc1` [VII], under setting [1], the concentration for half-maximal inhibition (IC50) came to 65 nM. Consider `COc1ccc(-n2cnnn2)cc1CN[C@H]1CCCN[C@H]1c1ccccc1` [XXV], for which the IC50 under setting [1] was 320 nM and the IC50 under setting [2] was determined as 320 nM. On to `COc1ccccc1CN[C@@H]1C2CC3CCCC(C2)N3[C@@H]1C(c1ccccc1)c1ccccc1` [VIII], for which the IC50 under setting [1] was 22 nM. The same measure, in the same setting: under `FC(F)Oc1ccccc1CN[C@H]1CCCN[C@H]1c1ccccc1` [XVI] stands 74 nM. With `c1ccc(CN[C@@H]2C3CC4CCC(C3)N4[C@@H]2C(c2ccccc2)c2ccccc2)cc1` [VI], the IC50 by setting is: under setting [1], 13 nM; under setting [2], 13 nM.

Take `CCOc1ccc(OC(F)(F)F)cc1CN[C@H]1CCCN[C@H]1c1ccccc1` [XVIII]: under setting [1], the IC50 came out at 45 nM. Turning to `COc1ccccc1CN[C@@H]1C2CC3CCC(C2)N3[C@@H]1C(c1ccccc1)c1ccccc1` [V], under setting [1], the IC50 is 41 nM. Consider `Clc1ccccc1CN[C@@H]1C2C3CCCC2CN(C3)[C@@H]1C(c1ccccc1)c1ccccc1` [XI], for which the IC50 runs as follows: under setting [1], 16 nM; under setting [2], 16 nM. Turning to `COc1ccccc1CC(=N)N1C[C@H]2C(=O)CCC(c3ccccc3)(c3ccccc3)[C@H]2C1` [XIII], under setting [1], the IC50 stood at 13 nM.
